Experimental data as given in PMC6646883 (Biomacromolecules, 2019).
Where no end group is shown, it is not given here.

Format: physicochemical
Conditions: methylene blue assay, dilute solution 0.1 mg/mL in 1x PBS pH 7.4 with Zn(OAc)2, Cys trigger, rt, absorbance at 750 nm, quadruplicate, t1/2=ln(2)/slope

Substance	H2S release half-life (pseudo-first-order) [min]
IAVEEEE [APA 1]	31
IAVEEEE [APA 3]	19
IAVEEEE [APA 5]	13
